15 compounds from patent publication US10329324B2 (viDA Therapeutics Inc., priority 2013, dated 2019) can be followed below.

Each structure is given as a SMILES string.

T1 sequence (P10144 21-247): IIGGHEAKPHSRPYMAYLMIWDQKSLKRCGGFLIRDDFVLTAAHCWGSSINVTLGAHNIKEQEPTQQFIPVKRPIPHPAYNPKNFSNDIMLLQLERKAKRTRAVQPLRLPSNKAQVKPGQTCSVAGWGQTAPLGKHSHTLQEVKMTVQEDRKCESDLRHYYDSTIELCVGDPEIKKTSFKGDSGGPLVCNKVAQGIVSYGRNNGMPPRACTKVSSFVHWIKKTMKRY

The first data set addresses T1, human Granzyme B (hGzmB) (Homo sapiens, UniProt P10144).
T1 construct: purchased Froelich Lab, Northshore University Health Systems Research Institute, Evanston, Ill., USA
Nature of the data set: Human Granzyme B enzymatic inhibition assay (fluorogenic, kinetic). Conditions: activity codes, Table 7; read-out: IC50 Activity Range. The class given is biochemical. Here is the method: A specific 2× assay buffer was prepared for the enzyme to be tested (see Table 2 for final 1× assay buffer compositions). If the assay buffer included DTT, it was added immediately prior to running the assay. A 2× enzyme mix was prepared (see Table 3 for enzyme assay conditions) at 80 uL per well. Compounds were screened at one or two appropriate concentrations (to determine the percent inhibition at those concentrations) and/or a full dose response curve (typically 8 points, to identify the IC50) in duplicate, triplicate, or higher replicates as needed. An appropriate control was also assessed in full dose response, in duplicate for each assay/plate. Background control wells consisted of 1× assay buffer, DMSO (5% v/v) and substrate. Positive control wells consisted of enzyme, DMSO (5% v/v) and substrate. Test compounds and control compounds were diluted in DMSO to […] the final desired concentration. For example, a test compound may be tested in dose response, in serial, tripling dilution condition starting at 20 uM and ending at 9.1 nM (or any appropriate concentration range and dilution scheme). Control compounds were prepared similarly. Diluted compounds were prepared in a dilution plate and transferred to the reaction plate (96-well medium binding plate (Greiner Bio-One FLUOTRAC™)) to allow for the desired final concentrations when added to the enzyme with AB. After mixing, the reaction plate was placed on a shaker (at 300 RPM) for 5 min, followed by incubation (covered) on the bench, for 20 min. Plates were warmed to reaction temperature (see Table 3) for a total incubation time of 30 min. Plates so prepared were ready for addition of substrate and the subsequent reaction.
(§1) An appropriate substrate for each assay was prepared in advance at 2× the final desired concentration (see Table 2) in DMSO. The appropriate substrate mix was added to each appropriate well on the reaction plate, and the plate was read immediately in the TECAN plate reader (TECAN INFINITE® M1000 Pro), set to the correct wavelength as needed for each assay (see Table 3) using 25 cycles, kinetic interval of 1 min, number of reads per well of 20 with shaking set to 1 s, double orbital, 2 mm amplitude. For fluorescent assays the gain was set to optimal (50%).
An in vitro fluorogenic detection assay for assessing the IC50 and/or percent inhibition at a given concentration of inhibitors against human Granzyme B (hGzmB) enzyme was performed as described in Example D1. When appropriate, percent inhibition data was collected and fitted to generate IC50 data using GraphPad Prism 5 (GraphPad Software, La Jolla Calif. USA, www.graphpad.com) and its non-linear regression analysis tools or other equivalent tools. […]
as §1, with “5)” for “2)”, “assay buffer. 30 uL of the” for “DMSO. The”, “6)” for “3)”, “15” for “25”, “(100% with gain regulation) for all assays except human GzmB which was set to 85 (with the z set at 23000 um).” for “(50%).”
An in vitro fluorogenic detection assay for assessing the IC50 and/or percent inhibition at a given concentration of inhibitors against human Granzyme B (hGzmB) enzyme was performed as described in Example D5. When appropriate, percent inhibition data was collected and fitted to generate IC50 data using GraphPad Prism 5 (GraphPad Software, La Jolla Calif. USA, www.graphpad.com) and its non-linear regression analysis tools or other equivalent tools.
The term IC50 denotes the concentration that gives 50% inhibition. Turning to `C[C@H](O)[C@H](NC(=O)Cc1ccccc1)C(=O)NCC(=O)N1c2ccccc2C[C@H]1C(=O)NCc1nn[nH]n1` [Example C3, (2S)-1-{2-[(2S,3S)-3-Hydroxy-2-(2-Phenylacetamido)Butanamido]Acetyl}-N-(2H-1,2,3,4-Tetrazol-5-Ylmethyl)-2,3-Dihydro-1H-Indole-2-Carboxamide], the IC50 is > 10000 nM. Same read-out and setting: as for `CC[C@H](C)[C@H](NC(=O)Cc1ccccc1)C(=O)NCC(=O)N1c2ccccc2C[C@H]1C(=O)NC(C)c1nn[nH]n1` (some centres unmarked) [Example B3], the figure is 1000 to 10000 nM; as for `CC[C@H](C)[C@H](NC(=O)Cc1ccccc1)C(=O)NCC(=O)N1c2ccc(NC(=O)OC(C)(C)C)cc2C[C@H]1C(=O)NCc1nn[nH]n1` [Example C31, Tert-Butyl N-[(2S)-1-{2-[(2S,3S)-3-Methyl-2-(2-Phenylacetamido)Pentanamido]Acetyl}-2-[(2H-1,2,3,4-Tetrazol-5-Ylmethyl)Carbamoyl]-2,3-Dihydro-1H-Indol-5-Yl]Carbamate], 100 to 1000 nM; as for `CC[C@H](C)[C@H](NC(=O)[C@@H](O)[C@H](O)C(=O)O)C(=O)NCC(=O)N1c2ccccc2C[C@H]1C(=O)NCc1nn[nH]n1` [Example A33, (2S,3S)-2,3-Dihydroxy-3-{[(1S,2S)-2-Methyl-1-({2-Oxo-2-[(2S)-2-[(2H-1,2,3,4-Tetrazol-5-Ylmethyl)Carbamoyl]-2,3-Dihydro-1H-Indol-1-Yl]Ethyl}Carbamoyl)Butyl]Carbamoyl}Propanoic Acid], < 100 nM. Same read-out and setting: the result for `CC[C@H](C)[C@H](NC(=O)C1CCCC1C(=O)O)C(=O)NCC(=O)N1c2ccccc2C[C@H]1C(=O)NCc1nn[nH]n1` (single isomer, unassigned) [Example A57-1] reads < 100 nM; that for `C[C@@H](OC(C)(C)C)[C@H](NC(=O)Cc1ccccc1)C(=O)NCC(=O)N1c2ccccc2C[C@H]1C(=O)NCc1nn[nH]n1` [Example C9, (2S)-1-{2-[(2S,3R)-3-(Tert-Butoxy)-2-(2-Phenylacetamido)Butanamido]Acetyl}-N-(2H-1,2,3,4-Tetrazol-5-Ylmethyl)-2,3-Dihydro-1H-Indole-2-Carboxamide], > 10000 nM; that for `CC[C@H](C)[C@H](NC(=O)Cc1ccccc1)C(=O)N[C@H](CCC(=O)O)C(=O)N1c2ccccc2C[C@H]1C(=O)NCc1nn[nH]n1` [Example C16, (4R)-4-[(2S,3S)-3-Methyl-2-(2-Phenylacetamido)Pentanamido]-5-Oxo-5-[(2S)-2-[(2H-1,2,3,4-Tetrazol-5-Ylmethyl)Carbamoyl]-2,3-Dihydro-1H-Indol-1-Yl]Pentanoic Acid], 100 to 1000 nM. Same read-out and setting: the result for `O=C(O)CCC(=O)N1CCCC[C@H]1C(=O)NCC(=O)N1c2ccccc2C[C@H]1C(=O)NCc1nn[nH]n1` [Example C25, 4-Oxo-4-[(2S)-2-({2-Oxo-2-[(2S)-2-[(2H-1,2,3,4-Tetrazol-5-Ylmethyl)Carbamoyl]-2,3-Dihydro-1H-Indol-1-Yl]Ethyl}Carbamoyl)Piperidin-1-Yl]Butanoic Acid] reads 1000 to 10000 nM. As to `O=C(O)CCC(=O)N1CCC[C@H]1C(=O)NCC(=O)N1c2ccccc2C[C@H]1C(=O)NCc1nn[nH]n1` [Example C28, 4-Oxo-4-[(2S)-2-({2-Oxo-2-[(2S)-2-[(2H-1,2,3,4-Tetrazol-5-Ylmethyl)Carbamoyl]-2,3-Dihydro-1H-Indol-1-Yl]Ethyl}Carbamoyl)Pyrrolidin-1-Yl]Butanoic Acid], the IC50 is > 10000 nM. The same measure, in the same setting: as for `CC[C@H](C)[C@H](NC(=O)Cc1ccccc1)C(=O)NCC(=O)N1c2cc(OC)ccc2CC1C(=O)NCc1c[nH]nn1` (stereo partly drawn) [Example B6, 6-Methoxy-1-{2-[(2S,3S)-3-Methyl-2-(2-Phenylacetamido)Pentanamido]Acetyl}-N-(1H-1,2,3-Triazol-5-Ylmethyl)-2,3-Dihydro-1H-Indole-2-Carboxamide], the figure is 1000 to 10000 nM; as for `O=C(O)CCC(=O)N[C@H](C(=O)NCC(=O)N1c2ccccc2C[C@H]1C(=O)NCc1nn[nH]n1)c1ccccc1` [Example C38, 3-{[(S)-({2-Oxo-2-[(2S)-2-[(2H-1,2,3,4-Tetrazol-5-Ylmethyl)Carbamoyl]-2,3-Dihydro-1H-Indol-1-Yl]Ethyl}Carbamoyl)(Phenyl)Methyl]Carbamoyl}Propanoic Acid], 100 to 1000 nM.

On to `CC[C@H](C)[C@H](NC(=O)Cc1ccccc1)C(=O)NCC(=O)N1c2ccc(C)cc2CC1C(=O)NCc1c[nH]nn1` (mixture of isomers) [Example B7, 5-Methyl-1-{2-[(2S,3S)-3-Methyl-2-(2-Phenylacetamido)Pentanamido]Acetyl}-N-(1H-1,2,3-Triazol-4-Ylmethyl)-2,3-Dihydro-1H-Indole-2-Carboxamide], for which the IC50 fell in the range of 100 to 1000 nM. On the same count and under the same terms, as for `CC[C@H](C)[C@H](NC(=O)C[C@H](N)C(=O)O)C(=O)NCC(=O)N1c2ccccc2C[C@H]1C(=O)NCc1nn[nH]n1` [Example A39, (2S)-2-Amino-3-{[(1S,2S)-2-Methyl-1-({2-Oxo-2-[(2S)-2-[(2H-1,2,3,4-Tetrazol-5-Ylmethyl)Carbamoyl]-2,3-Dihydro-1H-Indol-1-Yl]Ethyl}Carbamoyl)Butyl]Carbamoyl}Propanoic Acid], the figure is 100 to 1000 nM.

Test system in the next data set: not listed separately
Nature of the data set: Kinetic solubility determination in PBS. Format: physicochemical. The conditions noted are these: PBS 1X pH 7.4, 2.0% DMSO, 24 hour incubation at ambient temperature. Here is the method:
Kinetic solubility buffer (phosphate buffered saline (PBS, 1×) at pH 7.4) was prepared from PBS (10×) solution, (Fisher Scientific, Pittsburgh, Pa., USA, 10×), by adding PBS (50 mL, 10×) to approximately water (450 mL HPLC grade). The volume of the solution was then adjusted to 500 mL for a total dilution factor of 1:10 and a final PBS concentration of 1×. The pH of the final solution (PBS (1×)) was measured and found to be 7.4.
A DMSO stock solution (typically 10 mM or greater) was used for each compound to be tested. A final DMSO concentration of 2.0% and maximum theoretical compound concentration of typically 200 μM (or greater) was achieved by diluting an aliquot (6 μl) of each stock with kinetic solubility buffer (294 μl, PBS (1×) at pH 7.4) using a liquid handling system (Hamilton STARlet, Hamilton Robotics, Inc., Reno, Nev., USA) and incubated directly in a solubility filter plate (Millipore, Billerica, Mass., USA). Following 24 hour incubation at ambient temperature (20.5-21.7° C.), each sample was vacuum filtered. The filtrate was injected into the chemiluminescent nitrogen detector for quantification (Automated Discovery Workstation, Analiza, Inc., Cleveland, Ohio, USA). Each result was reported both in μM and μg/mL units. Three separate on-board performance indicating standards were assayed in triplicate with each test compound to ensure test results were within the acceptable range.
The equimolar nitrogen response of the detector was calibrated using standards which spanned the dynamic range of the instrument from 0.08 to 4500 μg/ml nitrogen. Each filtrate was quantified with respect to this calibration curve. Each calculated solubility value was corrected for background nitrogen present in the DMSO, and buffer used to prepare each sample. All reported values for samples containing adjacent nitrogen atoms in a ring structure were corrected for the expected non-equimolar response. Each calculated solubility result assumed that each sample was free of nitrogen containing impurities and was stable under the assay conditions. Analyses were performed at Analiza Inc. (Cleveland, Ohio, USA) by published methods (Bhattachar, S. N., et al, J. Pharma. BioMed Anal. 41:152-7 2006).
Regarding `CC[C@H](C)[C@H](NC(=O)Cc1csc2ccccc12)C(=O)N[C@H]1CCc2cccc3c2N(C1=O)[C@H](C(=O)NCc1c[nH]nn1)C3` [Willoughby 20, reference compound], the “Solubility in aqueous PBS Buffer (1X, pH 7.4), uM” value is listed as 4.2-4.9 uM and the “Solubility in aqueous PBS Buffer (1X, pH 7.4), ug/mL” value is given as 2.6-3.0 ug/mL.

Staying with this data set, now noted: phosphate buffered saline (PBS 1×), 21 °C, pH 7.4, aqueous buffer, kinetic from dmso stock, PBS 1X pH 7.4, 2.0% DMSO, 24 hour incubation at ambient temperature, read-out: Solubility in aqueous PBS Buffer (1X, pH 7.4).
As to `CC[C@H](C)[C@H](NC(=O)Cc1ccccc1)C(=O)NCC(=O)N1c2ccccc2C[C@H]1C(=O)NCc1csnn1` [Example B2, (2S)-1-{2-[(2S,3S)-3-Methyl-2-(2-Phenylacetamido)Pentanamido]Acetyl}-N-(1,2,3-Thiadiazol-4-Ylmethyl)-2,3-Dihydro-1H-Indole-2-Carboxamide], the solubility at 24 h was 12.6 µM.

Still in this data set, the particulars now being: phosphate buffered saline (PBS 1×), 21 °C, pH 7.4, aqueous buffer, kinetic from dmso stock, PBS 1X pH 7.4, 2.0% DMSO, 24 hour incubation at ambient temperature, read-out: Solubility in aqueous PBS Buffer (1X, pH 7.4), ug/mL.
For the compound `CC[C@H](C)[C@H](NC(=O)Cc1ccccc1)C(=O)NCC(=O)N1c2ccccc2C[C@H]1C(=O)NCc1csnn1` [Example B2, (2S)-1-{2-[(2S,3S)-3-Methyl-2-(2-Phenylacetamido)Pentanamido]Acetyl}-N-(1,2,3-Thiadiazol-4-Ylmethyl)-2,3-Dihydro-1H-Indole-2-Carboxamide], the solubility at 24 h worked out at 8.4 µg/mL.
